From BindingDB's records for doi:10.1021/bi060184f (Abbott Laboratories, 2006)

Legend:
Dipeptidyl peptidase 8 = Dipeptidyl peptidase 8 (Homo sapiens, UniProt Q6V1X1); test: DPP Inhibition Assay; details: pH 7.5; 22 °C
Dipeptidyl peptidase 4 = Dipeptidyl peptidase 4 (Homo sapiens, UniProt P27487); test: DPP Inhibition Assay; details: pH 7.5; 22 °C
Chain of Dipeptidyl peptidase 4 (P27487 whole entry): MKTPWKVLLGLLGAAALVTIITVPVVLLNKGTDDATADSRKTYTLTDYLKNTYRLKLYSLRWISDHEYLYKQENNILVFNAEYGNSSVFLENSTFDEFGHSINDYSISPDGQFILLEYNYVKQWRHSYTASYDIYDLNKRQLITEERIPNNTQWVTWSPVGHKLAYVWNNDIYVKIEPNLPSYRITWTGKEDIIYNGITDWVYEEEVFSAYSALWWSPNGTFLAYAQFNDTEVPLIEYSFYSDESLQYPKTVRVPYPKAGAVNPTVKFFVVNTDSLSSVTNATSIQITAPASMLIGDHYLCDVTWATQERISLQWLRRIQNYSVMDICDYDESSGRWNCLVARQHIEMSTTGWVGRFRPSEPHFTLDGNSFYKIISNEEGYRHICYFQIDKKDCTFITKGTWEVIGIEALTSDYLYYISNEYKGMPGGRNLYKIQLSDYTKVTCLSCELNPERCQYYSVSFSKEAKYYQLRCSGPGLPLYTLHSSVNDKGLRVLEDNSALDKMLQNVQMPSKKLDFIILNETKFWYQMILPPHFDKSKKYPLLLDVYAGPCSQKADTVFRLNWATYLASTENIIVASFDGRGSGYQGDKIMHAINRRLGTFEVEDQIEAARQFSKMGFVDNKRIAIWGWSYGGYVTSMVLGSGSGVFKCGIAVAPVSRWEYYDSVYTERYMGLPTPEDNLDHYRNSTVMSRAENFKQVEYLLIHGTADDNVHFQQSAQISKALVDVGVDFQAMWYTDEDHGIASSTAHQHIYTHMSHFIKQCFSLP

Chain of Dipeptidyl peptidase 8 (Q6V1X1 whole entry): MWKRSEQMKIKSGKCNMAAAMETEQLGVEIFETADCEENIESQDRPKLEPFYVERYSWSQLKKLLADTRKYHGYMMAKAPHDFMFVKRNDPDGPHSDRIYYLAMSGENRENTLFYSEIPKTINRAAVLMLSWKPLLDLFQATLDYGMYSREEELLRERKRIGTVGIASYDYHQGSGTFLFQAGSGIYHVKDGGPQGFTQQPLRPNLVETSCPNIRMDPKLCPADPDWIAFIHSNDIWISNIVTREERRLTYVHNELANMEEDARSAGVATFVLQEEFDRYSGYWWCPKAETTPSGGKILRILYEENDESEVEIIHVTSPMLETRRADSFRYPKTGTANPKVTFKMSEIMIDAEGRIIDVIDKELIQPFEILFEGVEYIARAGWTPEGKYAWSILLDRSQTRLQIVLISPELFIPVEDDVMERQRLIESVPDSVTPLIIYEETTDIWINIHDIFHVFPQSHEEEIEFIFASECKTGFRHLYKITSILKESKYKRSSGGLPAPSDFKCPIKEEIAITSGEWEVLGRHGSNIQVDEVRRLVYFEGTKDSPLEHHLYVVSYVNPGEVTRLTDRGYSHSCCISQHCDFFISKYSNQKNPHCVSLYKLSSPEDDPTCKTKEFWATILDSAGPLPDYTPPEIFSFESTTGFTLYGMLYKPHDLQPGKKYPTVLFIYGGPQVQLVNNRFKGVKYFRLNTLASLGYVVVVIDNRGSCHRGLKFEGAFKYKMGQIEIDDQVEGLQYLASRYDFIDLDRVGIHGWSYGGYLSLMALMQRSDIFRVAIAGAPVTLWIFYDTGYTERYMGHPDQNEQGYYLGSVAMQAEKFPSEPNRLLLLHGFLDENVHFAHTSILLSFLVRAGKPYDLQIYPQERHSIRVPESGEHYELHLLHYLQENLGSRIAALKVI

| Structure (SMILES) | Ki (Dipeptidyl peptidase 8) | Ki (Dipeptidyl peptidase 4) |
| --- | --- | --- |
| CC#C[C@H]1CC[C@@H](C#N)N1C(=O)[C@@H](N)C1CCCC1 [(2S,5R)-1-((2S)-2-amino-2-cyclopentylethanoyl)-5-prop-1-ynylpyrrolidine-2-carbonitrile] | > 30 µM | – |
| Cn1c(=O)c2c(nc(N3CCC[C@@H](N)C3)n2Cc2ccccc2C#N)n(C)c1=O [Xanthine mimetic compound 6] | > 30 µM | 0.002 µM |
